Results published in patent US5362906A, “Farnesyl pyrophosphate analogs” (Merck & Co., Inc., priority 1993, dated 1994).

Columns and labels:
[1] = target: T1, Farnesyl-protein transferase (Bos taurus, UniProt P29702+P49355); assay: Inhibition of Ras farnesylation in vitro by farnesyl-protein transferase (FTase); assay type: biochemical; settings: partially purified bovine brain FTase; Ras-CVLS 3.5 μM, [3H]FPP 0.25 μM; averages of 2-5 determinations
T1 construct: Farnesyl-protein transferase from bovine brain; from tissue; host or cells: bovine brain, partially purified (DEAE-Sephacel, N-octyl agarose, mono Q HPLC)
Experimental: The farnesyl pyrophosphate analog compounds of this invention were tested as follows for their ability to inhibit Ras farnesylation in vitro. Farnesyl-protein transferase from bovine brain was chromatographed on DEAE-Sephacel (Pharmacia, 0-0.8M NaCl gradient elution), N-octyl agarose (Sigma, 0-0.6M NaCl gradient elution), and a mono Q HPLC column (Pharmacia, 0-0.3M NaCl gradient). Ras-CVLS at 3.5 μM, 0.25 μM [^3 H]FPP, and the indicated compounds were incubated with this partially purified enzyme preparation.
The FTase data presented above are the averages of 2-5 determinations and reflect the ability of the test compounds to inhibit Ras farnesylation in vitro.

Ras farnesylation = settings: Hancock et al., Casey et al., Schafer et al.; cited from earlier work
HMG-CoA reductase = settings: cited from earlier work

Row | Compound | IC50 [1] [µM] | Inhibition of Ras farnesylation in vivo (Ras farnesylation) | Inhibition of HMG-CoA reductase (HMG-CoA reductase)
1 | CC[C@H](C)C(=O)O[C@H]1CCC=C2C=C[C@H](C)[C@H](CC[C@@H]3C[C@@H](O)CC(=O)O3)[C@H]21 [compactin] | – | Inhibition of Ras farnesylation in vivo has been demonstrated | inhibit HMG-CoA reductase
2 | CC(C)=CCC/C(C)=C/CC/C(C)=C/CCSCP(=O)(O)O [Scheme 6, [(E,E)-4,8,12-trimethyl-3,7,11-tridecatrienyl]thiomethyl-phosphonic acid] | 100 | – | –
3 | [1-Hydroxy-(E,E)-4,8,12-trimethyl-3,7,11-tridecatrienyl]phosphonic acid [Scheme 12] | 42 | – | –
4 | CC(C)=CCC/C(C)=C/CC/C(C)=C/CCC(O)CC(=O)O (stereo not drawn) [Scheme 1, 3-Hydroxy-7,11,15-trimethylhexadeca-6,10,14-trienoic acid] | 310 | – | –
5 | CC[C@H](C)C(=O)O[C@H]1C[C@@H](C)C=C2C=C[C@H](C)[C@H](CC[C@@H]3C[C@@H](O)CC(=O)O3)[C@H]21 [lovastatin] | – | Inhibition of Ras farnesylation in vivo has been demonstrated | inhibit HMG-CoA reductase
6 | [2-[(E,E)-3,7,11-Trimethyl-2,6,10-dodecatrienylamino]-2-oxo-ethyl]phosphonic acid monomethyl ester, potassium salt [Scheme 8] | 100 | – | –

The remaining compounds from weak to strong by IC50 [1], led by results:

Row | IC50 [1] [µM] | Compound | Inhibition of Ras farnesylation in vivo (Ras farnesylation) | Inhibition of HMG-CoA reductase (HMG-CoA reductase)
7 | 100 | CC(C)=CCC/C(C)=C/CC/C(C)=C/CCC(O)CP(=O)(O)O (stereo not drawn) [Scheme 3, [2-Hydroxy-6,10,14-trimethylpentadeca-5,9,13-trienyl]phosphonic acid] | – | –
8 | 62 | CC(C)=CCC/C(C)=C/CC/C(C)=C/CCC(=O)CP(=O)(O)O [Scheme 2, [2-Oxo-6,10,14-trimethylpentadeca-5,9,13-trienyl]phosphonic acid] | – | –
9 | 21 | CC(=O)C(C/C=C(\C)CC/C=C(\C)CCC=C(C)C)P(=O)(O)O (stereo not drawn) [Scheme 4, [1-Acetyl-4,8,12-trimethyltrideca-3,7,11-trienyl]phosphonic acid] | – | –
10 | 0.044 | CC(C)=CCC/C(C)=C/CC/C(C)=C/CNC(=O)CP(=O)(O)O [Scheme 5, [2-[(E,E)-3,7,11-Trimethyl-2,6,10-dodecatrienylamino]-2-oxo-ethyl]phosphonic acid] | – | –
